SMILES strings stand for the structures.

Human Factor XIIa, sequence (P00748 373-615): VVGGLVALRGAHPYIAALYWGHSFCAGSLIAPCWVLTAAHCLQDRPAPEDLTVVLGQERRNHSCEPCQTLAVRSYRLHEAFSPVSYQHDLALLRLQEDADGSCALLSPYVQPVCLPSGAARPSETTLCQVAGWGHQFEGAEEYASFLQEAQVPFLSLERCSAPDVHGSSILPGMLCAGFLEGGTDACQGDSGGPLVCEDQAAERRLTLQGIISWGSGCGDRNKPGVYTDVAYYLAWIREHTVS

The target in this assay is Human Factor XIIa (Homo sapiens (Human), UniProt P00748). The assay can be described thus: Determination of FXIIa inhibition (fluorogenic substrate H-DPro-Phe-Arg-AFC, IC50 assay). Type of assay: biochemical. Conditions: substrate H-DPro-Phe-Arg-AFC at Km, 25° C.; class scale A-G. The protocol:
Determination of FXIIa Inhibition
In vitro inhibition of Factor XIIa was determined using an IC50 assay based on standard literature methods (see e.g Baeriswyl et al., ACS Chem. Biol., 2015, 10 (8) 1861; Bouckaert et al., European Journal of Medicinal Chemistry 110 (2016) 181). Human Factor XIIa (Enzyme Research Laboratories) was incubated at 25° C. with the fluorogenic substrate H-DPro-Phe-Arg-AFC (Peptide Protein Science) and various concentrations of the test compound. Protease activity was measured by monitoring the accumulation of liberated fluorescence from the substrate over 5 min at 25° C. The linear rate of fluorescence increase per minute was expressed as percentage (%) activity. The Km for the cleavage of the substrate by FXIIa was determined by standard transformation of the Michaelis-Menten equation. The compound inhibitor assays were performed at substrate Km concentration. IC50 values were calculated as the concentration of inhibitor giving 50% inhibition (IC50) of the uninhibited enzyme activity (100%).
A word on the IC50: it is the concentration that inhibits the measured activity by half. As for `CN1CCN(C(=O)Cc2ccc(CNc3ccc4c(N)nccc4c3)cc2)CC1` [Example 2179, 2-(4-{[(1-aminoisoquinolin-6-yl)amino]methyl}phenyl)-1-(4-methylpiperazin-1-yl)ethanone], the IC50 lay in the range of 1000 to 3000 nM.
Then `CN1CCC(C)(COc2cc(CNc3cccc4c(N)nccc34)ccn2)CC1` [Example 4424, N5-((2-((1,4-dimethylpiperidin-4-yl)methoxy)pyridin-4-yl)methyl)isoquinoline-1,5-diamine], with 100 to 300 nM; and `Nc1nccc2cc(NCc3ccc(OC[C@H]4CCn5ccnc5C4)nc3)ccc12` (single isomer, unassigned) [Example 1024, 6-N-({6-[(7S*)-5H,6H,7H,8H-imidazo[1,2-a]pyridin-4-yl}-ylmethyl)isoquinoline-1,6-diamine], with 100 to 300 nM; and `CN1CCC(CCOc2ccc(CNc3ccc4c(N)nccc4c3)cn2)CC1` [Example 1032, 6-N-({6-[2-(1-methylpiperidin-4-yl)ethoxy]pyridin-3-yl}methyl)isoquinoline-1,6-diamine], with 300 to 1000 nM.
Under `CC(C)N1CCC(OCc2cc(CNc3ccc4c(N)ncc(Cl)c4c3)ccn2)CC1` [Example 4296, 4-chloro-6-N-[(2-{[(1-isopropylpiperidin-4-yl)oxy]methyl}pyridin-4-yl)methyl]isoquinoline-1,6-diamine] stands 1000 to 3000 nM; under `CN1CCC(OCc2ccc(CNc3ccc4c(N)nccc4c3)c(F)c2)CC12COC2` (stereo not shown) [Example 2205, 6-N-({2-fluoro-4-[({5-methyl-2-oxa-5-azaspiro[3.5]nonan-8-yl}oxy)methyl]phenyl}methyl)isoquinoline-1,6-diamine], 1000 to 3000 nM.
Molecule `Cc1cc(N2CCn3c(nnc3C(F)(F)F)C2C)ncc1CNc1ccnc2[nH]c(Cl)cc12` (single isomer, unassigned) [Example 1315, (R*)-2-Chloro-N-((4-methyl-6-(8-methyl-3-(trifluoromethyl)-5,6-dihydro-[1,2,4]triazolo[4,3-a]pyrazin-7(8H)-yl)pyridin-3-yl)methyl)-1H-pyrrolo[2,3-b]pyridin-4-amine] displayed an IC50 of 10000 to 40000 nM.
Under `COc1nc(OCC2CCN(C)CC2)ccc1CNc1ccc2c(N)nccc2c1` [Example 1027, N6-((2-methoxy-6-((1-methylpiperidin-4-yl)methoxy)pyridin-3-yl)methyl)isoquinoline-1,6-diamine] stands 100 to 300 nM.
Then `CN1CCC(CNc2ccc(CNc3cc(C(F)(F)F)cc4[nH]ccc34)cn2)CC1` [Example 1237, N-((6-(((1-methylpiperidin-4-yl)methyl)amino)pyridin-3-yl)methyl)-6-(trifluoromethyl)-1H-indol-4-amine], with 10000 to 40000 nM.
`Nc1nccc2cc(NCc3ccnc(OCC4CCn5ccnc5C4)c3)ccc12` (stereo not shown) [Example 4408, N6-((2-((5,6,7,8-tetrahydroimidazo[1,2-a]pyridin-7-yl)methoxy)pyridin-4-yl)methyl)isoquinoline-1,6-diamine] came in with an IC50 of 100 to 300 nM.
Under `Nc1nccc2cc(NCc3ccc(OCCCn4ccnc4)nc3)ccc12` [Example 1031, 6-N-({6-[3-(imidazol-1-yl)propoxy]pyridin-3-yl}methyl)isoquinoline-1,6-diamine] stands 1000 to 3000 nM; under `Cc1cc(N2CCn3c(nnc3C(F)(F)F)C2)ccc1CNc1cccc2c(N)nccc12` [Example 2257, N5-(2-methyl-4-(3-(trifluoromethyl)-5,6-dihydro-[1,2,4]triazolo[4,3-a]pyrazin-7(8H)-yl)benzyl)isoquinoline-1,5-diamine], 100 to 300 nM.
`Cn1ccnc1CCCOc1cc(CNc2cccc3c(N)nccc23)ccn1` [Example 4421, 5-N-({2-[3-(1-methylimidazol-2-yl)propoxy]pyridin-4-yl}methyl)isoquinoline-1,5-diamine] showed an IC50 of 300 to 1000 nM.
`CC(=O)N1CCC(OCc2ccc(CNc3ccc4c(N)nccc4c3)c(F)c2)CC1` [Example 2200, 1-(4-((4-(((1-aminoisoquinolin-6-yl)amino)methyl)-3-fluorobenzyl)oxy)piperidin-1-yl)ethan-1-one] returned a half-maximal inhibitory concentration (IC50) of 300 to 1000 nM.
Regarding `CN1CCC(CCc2cc(CNc3ccc4c(N)nccc4c3)ccn2)CC1` [Example 4409, 6-N-({2-[2-(1-methylpiperidin-4-yl)ethyl]pyridin-4-yl}methyl)isoquinoline-1,6-diamine], the IC50 is 300 to 1000 nM.
Under `Cc1cc(N2CCn3c(nnc3C(F)(F)F)C2C)ncc1CNc1ccnc2[nH]c(Cl)cc12` (racemic) [Example 1314, 2-Chloro-N-((4-methyl-6-(8-methyl-3-(trifluoromethyl)-5,6-dihydro-[1,2,4]triazolo[4,3-a]pyrazin-7(8H)-yl)pyridin-3-yl)methyl)-1H-pyrrolo[2,3-b]pyridin-4-amine] stands 10 to 100 nM; under `CN1CCC(COc2ccc(CCc3cccc4c(N)nccc34)cn2)CC1` [Example 1019, 5-(2-{6-[(1-methylpiperidin-4-yl)methoxy]pyridin-3-yl}ethyl)isoquinolin-1-amine], 3000 to 10000 nM.
As to `Cc1cc2c(NCc3cnc(N4CCn5c(nnc5C(F)(F)F)C4)cc3C)cncc2[nH]1` [Example 1341, 2-methyl-N-((4-methyl-6-(3-(trifluoromethyl)-5,6-dihydro-[1,2,4]triazolo[4,3-a]pyrazin-7(8H)-yl)pyridin-3-yl)methyl)-1H-pyrrolo[2,3-c]pyridin-4-amine], the IC50 is 1000 to 3000 nM.
`CN1CCC(COc2cc(CN(C)c3cccc4c(N)nccc34)ccn2)CC1` [Example 4419, N5-methyl-N5-((2-((1-methylpiperidin-4-yl)methoxy)pyridin-4-yl)methyl)isoquinoline-1,5-diamine] showed an IC50 of 3000 to 10000 nM.
Under `CN1CCC(COc2cc(CNc3cccc4c(N)nccc34)ccn2)CC1=O` (stereo not shown) [Example 4417, 4-{[(4-{[(1-aminoisoquinolin-5-yl)amino]methyl}pyridin-2-yl)oxy]methyl}-1-methylpiperidin-2-one] stands 300 to 1000 nM.
In turn, `CN1CCC(OCc2ccc(CN(C)c3cccc4c(N)nccc34)c(Cl)c2)CC1` [Example 2203, 5-N-[(2-chloro-4-{[(1-methylpiperidin-4-yl)oxy]methyl}phenyl)methyl]-5-N-methylisoquinoline-1,5-diamine] registered an IC50 of 1000 to 3000 nM.
For the molecule `Nc1nccc2cc(NCc3cccc(CN4CCCC4)c3)ccc12` [Example 4287, 6-N-{[3-(pyrrolidin-1-ylmethyl)phenyl]methyl}isoquinoline-1,6-diamine], the IC50 lay in the range of 10000 to 40000 nM.
Take `Cc1cc(N2CCn3c(nnc3C(F)(F)F)C2C)cnc1CNc1cccc2c(N)nccc12` (stereo not shown) [Example 9007, N5-((3-methyl-5-(8-methyl-3-(trifluoromethyl)-5,6-dihydro-[1,2,4]triazolo[4,3-a]pyrazin-7(8H)-yl)pyridin-2-yl)methyl)isoquinoline-1,5-diamine]: the IC50 was in the range of 10 to 100 nM.
Then `CCC1c2nnc(C(F)(F)F)n2CCN1c1cc(C)c(CNc2cccc3c(N)nccc23)cn1` (stereo not shown) [Example 1331, N5-((6-(8-ethyl-3-(trifluoromethyl)-5,6-dihydro-[1,2,4]triazolo[4,3-a]pyrazin-7(8H)-yl)-4-methylpyridin-3-yl)methyl)isoquinoline-1,5-diamine], with 100 to 300 nM; and `Cn1ccnc1CCCOc1ccc(CNc2ccc3c(N)nccc3c2)cn1` [Example 1025, 6-N-({6-[3-(1-methylimidazol-2-yl)propoxy]pyridin-3-yl}methyl)isoquinoline-1,6-diamine], with 300 to 1000 nM; and `Cc1cc(N2Cc3nnc(C(F)(F)F)n3C[C@H]2C)ncc1CNc1cccc2c(N)nccc12` [Example 1342, (R)-N5-((4-methyl-6-(6-methyl-3-(trifluoromethyl)-5,6-dihydro-[1,2,4]triazolo[4,3-a]pyrazin-7(8H)-yl)pyridin-3-yl)methyl)isoquinoline-1,5-diamine], with 10 to 100 nM.
`Nc1ncc(Cl)c2cc(NCc3ccc(OCC4CCn5ccnc5C4)nc3)ccc12` (stereo not shown) [Example 1041, 4-Chloro-N6-[[6-(5,6,7,8-tetrahydroimidazo[1,2-a]pyridin-7-ylmethoxy)-3-pyridyl]methyl]isoquinoline-1,6-diamine] came in with an IC50 of 300 to 1000 nM.
Regarding `Nc1nccc2cc(NCc3ccnc(OC[C@@H]4CCn5ccnc5C4)c3)ccc12` (single isomer, unassigned) [Example 4412, 6-N-({2-[(7R*)-5H,6H,7H,8H-imidazo[1,2-a]pyridin-7-ylmethoxy]pyridin-4-yl}methyl)isoquinoline-1,6-diamine], the IC50 fell in the range of 100 to 300 nM.
Then `CCc1nc(N2CCn3c(nnc3C(F)(F)F)C2)ccc1CNc1cccc2c(N)nccc12` [Example 1336, N5-((2-ethyl-6-(3-(trifluoromethyl)-5,6-dihydro-[1,2,4]triazolo[4,3-a]pyrazin-7(8H)-yl)pyridin-3-yl)methyl)isoquinoline-1,5-diamine], with 300 to 1000 nM; and `CN1CCC(COc2ccc(CCc3ccc4c(N)nccc4c3)cn2)CC1` [Example 1018, 6-(2-(6-((1-methylpiperidin-4-yl)methoxy)pyridin-3-yl)ethyl)isoquinolin-1-amine], with 300 to 1000 nM.
Then `CN(Cc1ccc(N2CCn3c(nnc3C(F)(F)F)C2)nc1)c1cccc2c(N)nccc12` [Example 1332, N5-methyl-N5-((6-(3-(trifluoromethyl)-5,6-dihydro-[1,2,4]triazolo[4,3-a]pyrazin-7(8H)-yl)pyridin-3-yl)methyl)isoquinoline-1,5-diamine], with 3000 to 10000 nM.

Values taken from patent US20240059691A1 (KALVISTA PHARMACEUTICALS LIMITED, priority 2020, published 2024).
